Data on 22 compounds can be found in patent US20240228499A1, “MASP-2 INHIBITORS AND METHODS OF USE” (Omeros Corporation, priority 2022, published 2024).

In one test the target is T1, MASP-2 (CCP1-CCP2-SP) (Homo sapiens, UniProt O00187).
T1 construct: 15 μL of Enzyme MASP-2 (CCP1-CCP2-SP) in Assay Buffer
In words: Enzymatic assay for MASP-2 inhibitory activity (fluorogenic substrate). It counts as biochemical. Particulars: room temperature, 20 mM Hepes pH 7.4, 20 min. The method, then: The MASP-2 assay utilizes a fluorogenic substrate, based on the cleavage site for its natural substrate C2. The assay was run at room temperature in an assay buffer containing 20 mM HEPES, pH 7.4, 140 mM NaCl and 0.1% Tween 20. Assay parameters were adjusted such that the assay was linear with respect to time, enzyme, and substrate concentrations. Under the optimized assays conditions, IC50 values were equivalent to Ki values, except in the few cases of “tight binding” inhibitors. Cases of “tight binding” or possible “slow binding” inhibitors were handled by the methods described in Copeland R. A. (2013) Evaluation of Enzyme Inhibitors in Drug Discovery. 2nd Ed., John Wiley and Sons, Inc., Chapters 5-7.
The MASP-2 assay protocol was carried out as follows. Test compounds were serially diluted in DMSO and then 100 nL of each dilution was transferred to the assay plate(s). 10 μL of Assay Buffer was added, followed by 15 μL of Enzyme MASP-2 (CCP1-CCP2-SP) in Assay Buffer. 15 μL of Substrate in Assay Buffer was then added and the mixture was mixed to start the reaction. After 20 min at room temperature, 15 μL of a stop solution (0.1 M acetic acid) was added, the sample was mixed, and the plates were read on a SpectraMax i3× Microplate Reader with the data exported as an Excel file. Each assay plate included a “no inhibitor” (DMSO only) control, a “no enzyme” control, and a reference inhibitor control. % Activity values=100*(average test comp. fluorescence−average “no enzyme” fluorescence)/(average “DMSO only” fluorescence−average “no enzyme” fluorescence). IC50 and Ki replicate values were very reproducible, with values well within +2-fold.

The target of the next test is T2, human a-thrombin (Homo sapiens, UniProt P00734).
T2 construct: enzyme (human a-thrombin (BioPharm® Lab.)); purchased BioPharm Lab
In words: Enzymatic assay for thrombin (fluorogenic peptide substrate Boc-VPR-AMC). It counts as biochemical. The conditions noted are these: room temperature, 20 mM Hepes pH 7.4, 20 min. As for the experimental part: The thrombin assay utilizes a fluorogenic peptide substrate (Boc-VPR-AMC (R&D Systems) and was run at room temperature in an assay buffer containing 20 mM Hepes, pH 7.4, 140 mM NaCl and 0.1% Tween 20. Assay parameters were adjusted such that the assay was linear with respect to time, enzyme, and substrate concentrations. Under these optimized assays conditions, IC50 values were equivalent to Ki values, except in a few cases of “tight binding” inhibitors. Cases of “tight binding” or possible “slow binding” inhibitors were handled by the methods described in Copeland R.A. (2013) Evaluation of Enzyme Inhibitors in Drug Discovery. 2nd Ed. John Wiley and Sons, Inc., Chapters 5-7.
The thrombin assay protocol was carried out as follows. Test compounds were serially diluted in DMSO and then 100 nL of each dilution was transferred to the assay plate(s). 10 μL of Assay Buffer was added, followed by 15 μL of enzyme (human a-thrombin (BioPharm® Lab.)) in assay buffer. 15 μL of substrate in assay buffer was then added and the sample mixed to start the reaction. After 20 min at room temperature, 15 μL of a stop solution (0.1 M acetic acid) was added, the sample was mixed, and the plates were read on a SpectraMax® i3× Microplate Reader with the data exported as Excel files. Each assay plate included a “no inhibitor” (DMSO only) control, a “no enzyme” control, and a reference inhibitor control. % Activity values=100*(ave. test comp. fluorescence−ave. “no enz” fluorescence)/(ave. “DMSO only” fluorescence−ave. “no enz” fluorescence). IC50 and Ki values were very reproducible, with values falling well within +2-fold.

Molecules are shown by their SMILES. pKi: −log10 of the molar value. Counter-ions that a name gives are not always drawn. Bounds are passed on as bounds.

T1 sequence (O00187 287-686 limits assumed): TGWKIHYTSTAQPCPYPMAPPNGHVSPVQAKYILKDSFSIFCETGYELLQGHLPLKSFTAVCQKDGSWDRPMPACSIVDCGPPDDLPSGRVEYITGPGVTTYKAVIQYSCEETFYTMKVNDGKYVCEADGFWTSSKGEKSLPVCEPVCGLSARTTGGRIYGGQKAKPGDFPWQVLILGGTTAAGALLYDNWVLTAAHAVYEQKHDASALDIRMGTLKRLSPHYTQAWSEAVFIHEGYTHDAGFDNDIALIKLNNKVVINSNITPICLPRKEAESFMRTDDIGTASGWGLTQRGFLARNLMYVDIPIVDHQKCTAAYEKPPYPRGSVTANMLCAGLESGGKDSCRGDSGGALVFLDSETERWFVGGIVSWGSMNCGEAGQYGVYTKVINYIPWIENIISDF

As usually defined, the pKi is −log10 of the Ki, conventionally taken in molar units. Low readings indicate a large Ki, high ones a small Ki. Consider `Cc1nc(N)ccc1CNC(=O)[C@@H]1CCc2ncc(NCc3cccc(-n4cccn4)c3)c(=O)n21` [Compound 40, (S)-3-((3-(1H-pyrazol-1-yl)benzyl)amino)-N-((6-amino-2-methylpyridin-3-yl)methyl)-4-oxo-4,6,7,8-tetrahydropyrrolo[1,2-a]pyrimidine-6-carboxamide, trifluoroacetate], for which the values for the pKi on MASP-2 (CCP1-CCP2-SP) and at human a-thrombin were more than 6.30 and 5.60 to 6.30, respectively.
Taken in the same sequence, the figures for `Cc1nc(N)ccc1CNC(=O)[C@@H]1CCc2ncc(NCc3cc(OC(F)(F)F)ccc3F)c(=O)n21` [Compound 41, (S)-N-((6-amino-2-methylpyridin-3-yl)methyl)-3-((2-fluoro-5-(trifluoromethoxy)benzyl)amino)-4-oxo-4,6,7,8-tetrahydro-pyrrolo[1,2-a]pyrimidine-6-carboxamide, di-trifluoroacetate] were more than 6.30 and 5.60 to 6.30.
On to `Cc1nc(N)ccc1CNC(=O)[C@@H]1CCc2ncc(NCc3cccc(C(F)(F)F)c3F)c(=O)n21` [Compound 42, (S)-N-((6-amino-2-methylpyridin-3-yl)methyl)-3-((2-fluoro-3-(trifluoromethyl)benzyl)amino)-4-oxo-4,6,7,8-tetrahydro-pyrrolo[1,2-a]pyrimidine-6-carboxamide, di-trifluoroacetate], for which the pKi on MASP-2 (CCP1-CCP2-SP) was more than 6.30; on human a-thrombin it was 5.60 to 6.30.
`Cc1nc(N)ccc1CNC(=O)[C@@H]1CCc2ncc(NCc3ccc(C(F)(F)F)cc3F)c(=O)n21` [Compound 43, (S)-N-((6-amino-2-methylpyridin-3-yl)methyl)-3-((2-fluoro-4-(trifluoromethyl)benzyl)amino)-4-oxo-4,6,7,8-tetrahydro-pyrrolo[1,2-a]pyrimidine-6-carboxamide, di-trifluoroacetate]: the figures for the pKi at MASP-2 (CCP1-CCP2-SP) and on human a-thrombin were more than 6.30 and 5.00 to 5.60, respectively.
As for `COc1cc(CNc2cnc3n(c2=O)[C@H](C(=O)NCc2ccc(N)nc2C)CC3)ccc1C` [Compound 45, (S)-N-((6-amino-2-methylpyridin-3-yl)methyl)-3-((3-methoxy-4-methylbenzyl)amino)-4-oxo-4,6,7,8-tetrahydropyrrolo[1,2-a]pyrimidine-6-carboxamide, trifluoroacetate], the pKi is more than 6.30 on MASP-2 (CCP1-CCP2-SP) and 5.60 to 6.30 on human a-thrombin.
Consider `Cc1nc(N)ccc1CNC(=O)[C@@H]1CCc2ncc(NCc3cc(F)cc(C(F)(F)F)c3)c(=O)n21` [Compound 47, (S)-N-((6-amino-2-methylpyridin-3-yl)methyl)-3-((3-fluoro-5-(trifluoromethyl)benzyl)amino)-4-oxo-4,6,7,8-tetrahydro-pyrrolo[1,2-a]pyrimidine-6-carboxamide, di-trifluoroacetate], for which the figures for the negative logarithm of the Ki (pKi) on MASP-2 (CCP1-CCP2-SP) and on human a-thrombin were more than 6.30 and 5.60 to 6.30, respectively.
In the case of `COc1cccc(CNc2cnc3n(c2=O)[C@H](C(=O)NCc2ccc(N)nc2C)CC3)c1C` [Compound 48, (S)-N-((6-amino-2-methylpyridin-3-yl)methyl)-3-((3-methoxy-2-methylbenzyl)amino)-4-oxo-4,6,7,8-tetrahydropyrrolo[1,2-a]pyrimidine-6-carboxamide, trifluoroacetate], the negative logarithm of the Ki (pKi) on MASP-2 (CCP1-CCP2-SP) is more than 6.30; on human a-thrombin, 5.60 to 6.30.
Consider `COc1cc(F)cc(CNc2cnc3n(c2=O)[C@H](C(=O)NCc2ccc(N)nc2C)CC3)c1` [Compound 49, (S)-N-((6-amino-2-methylpyridin-3-yl)methyl)-3-((3-fluoro-5-methoxybenzyl)amino)-4-oxo-4,6,7,8-tetrahydropyrrolo[1,2-a]pyrimidine-6-carboxamide, di-trifluoroacetate], for which the pKi on MASP-2 (CCP1-CCP2-SP) and at human a-thrombin was more than 6.30 throughout.
In the case of `Cc1cc(CNc2cnc3n(c2=O)[C@H](C(=O)N[C@H](C)c2ccc(N)nc2)CC3)cc(C(F)(F)F)c1` [Compound 51, (S)—N—((R)-1-(6-aminopyridin-3-yl)ethyl)-3-((3-methyl-5-(trifluoromethyl)benzyl)amino)-4-oxo-4,6,7,8-tetrahydropyrrolo[1,2-a]pyrimidine-6-carboxamide. DI-trifluoroacetate], the pKi was more than 6.30 on MASP-2 (CCP1-CCP2-SP) and less than 4.60 at human a-thrombin.
For `Cc1nc(N)ccc1CNC(=O)[C@@H]1CCc2ncc(NCc3ccc(F)cc3)c(=O)n21` [Compound 52, (S)—N-((6-amino-2-methylpyridin-3-yl)methyl)-3-((4-fluorobenzyl)amino)-4-oxo-4,6,7,8-tetrahydropyrrolo[1,2-a]pyrimidine-6-carboxamide], the results for the negative logarithm of the Ki (pKi) at MASP-2 (CCP1-CCP2-SP) and on human a-thrombin were more than 6.30 and 5.00 to 5.60, respectively.
`Cc1cc(Cl)cc(CNc2cnc3n(c2=O)[C@H](C(=O)NCc2ccc(N)nc2C)CC3)c1` [Compound 55, (S)-N-((6-amino-2-methylpyridin-3-yl)methyl)-3-((3-chloro-5-methylbenzyl)amino)-4-oxo-4,6,7,8-tetrahydropyrrolo[1,2-a]pyrimidine-6-carboxamide]: the pKi at MASP-2 (CCP1-CCP2-SP) and on human a-thrombin was more than 6.30 each time.
With `Cc1nc(N)ccc1CNC(=O)[C@@H]1CCc2ncc(NCc3cc(F)cc(Cl)c3)c(=O)n21` [Compound 56, (S)—N-((6-amino-2-methylpyridin-3-yl)methyl)-3-((3-chloro-5-fluorobenzyl)amino)-4-oxo-4,6,7,8-tetrahydropyrrolo[1,2-a]pyrimidine-6-carboxamide], the pKi on MASP-2 (CCP1-CCP2-SP) was more than 6.30; at human a-thrombin it was 5.60 to 6.30.
On to `CCOc1cccc(CNc2cnc3n(c2=O)[C@H](C(=O)NCc2ccc(N)nc2C)CC3)c1` [Compound 57, (S)—N-((6-amino-2-methylpyridin-3-yl)methyl)-3-((3-ethoxybenzyl)amino)-4-oxo-4,6,7,8-tetrahydropyrrolo[1,2-a]pyrimidine-6-carboxamide], for which the results for the pKi on MASP-2 (CCP1-CCP2-SP) and on human a-thrombin were more than 6.30 and 5.60 to 6.30, respectively.
In the same order, the values of `Cc1nc(N)ccc1CNC(=O)[C@@H]1CCc2ncc(NCc3cccc(Cl)c3)c(=O)n21` [Compound 58] are more than 6.30 and 5.60 to 6.30.
In the same order, the values of `Cc1nc(N)ccc1CNC(=O)[C@@H]1CCc2ncc(NCc3ccccc3)c(=O)n21` [Compound 59] are more than 6.30 and 5.00 to 5.60.
Take `Cc1cccc(CNc2cnc3n(c2=O)[C@H](C(=O)NCc2ccc(N)nc2C)CC3)c1` [Compound 60, (S)—N-((6-amino-2-methylpyridin-3-yl)methyl)-3-((3-methylbenzyl)amino)-4-oxo-4,6,7,8-tetrahydropyrrolo[1,2-a]pyrimidine-6-carboxamide]: the values for the pKi on MASP-2 (CCP1-CCP2-SP) and on human a-thrombin were more than 6.30 and 5.60 to 6.30, respectively.
Take `Cc1ccc(CNc2cnc3n(c2=O)[C@H](C(=O)NCc2ccc(N)nc2C)CC3)cc1` [Compound 61]: the pKi is more than 6.30 on MASP-2 (CCP1-CCP2-SP) and 5.00 to 5.60 on human a-thrombin.
Regarding `Cc1nc(N)ccc1CNC(=O)[C@@H]1CCc2ncc(NCc3cccc(F)c3C)c(=O)n21` [Compound 63], the pKi is more than 6.30 on MASP-2 (CCP1-CCP2-SP) and 5.60 to 6.30 on human a-thrombin.
Regarding `Cc1cc(Cl)cc(CNc2cnc3n(c2=O)[C@H](C(=O)NCc2cccnc2)CC3)c1` [Compound 66], the values for the pKi at MASP-2 (CCP1-CCP2-SP) and at human a-thrombin were 5.60 to 6.30 and less than 4.60, respectively.
Regarding `CCN(Cc1cc(C)cc(OC)c1)c1cnc2n(c1=O)[C@H](C(=O)NCc1ccc(N)nc1C)CC2` [Compound 67, (S)—N-((6-amino-2-methylpyridin-3-yl)methyl)-3-(ethyl(3-methoxy-5-methylbenzyl)amino)-4-oxo-4,6,7,8-tetrahydropyrrolo[1,2-a]pyrimidine-6-carboxamide], the pKi on MASP-2 (CCP1-CCP2-SP) is 5.60 to 6.30; at human a-thrombin it was 4.60 to 5.00.
With `Cc1nc(N)ccc1CNC(=O)[C@@H]1CCc2ncc(NCc3ccccc3F)c(=O)n21` [Compound 68], the results for the pKi on MASP-2 (CCP1-CCP2-SP) and on human a-thrombin were more than 6.30 and 5.00 to 5.60, respectively.
Consider `Cc1nc(N)ccc1CNC(=O)[C@@H]1CCc2ncc(NCc3cccc(C(F)F)c3)c(=O)n21` [Compound 71, (S)—N-((6-amino-2-methylpyridin-3-yl)methyl)-3-((3-(difluoromethyl)benzyl)amino)-4-oxo-4,6,7,8-tetrahydropyrrolo[1,2-a]pyrimidine-6-carboxamide], for which the negative logarithm of the Ki (pKi) was more than 6.30 at MASP-2 (CCP1-CCP2-SP) and 5.60 to 6.30 at human a-thrombin.
